What was measured:
[1] = test system: hRPE and U2OS-STING cells; assay: EdU incorporation assay; assay type: cell-based, human; conditions: 18 hours
Description: EdU incorporated cells were detected by confocal microscopy after Click-iT® EdU labeling following the manufacturer's protocol (Click-iT™ EdU Alexa Fluor™ 594 Imaging Kit, Thermo Fisher Cat #C10339).

[2] = test system: cell cycle progression; assay: Cell cycle analysis by flow cytometry (BrdU, propidium iodide); assay type: cell-based, human
Description: Cells were washed with cold PBS and resuspended in 0.5 ml PBS to achieve a single cell suspension. Cells were fixed in a tube containing 4.5 ml 70% ethanol kept at 4° C. overnight. Cells were collected by centrifugation at 500 g for 5 minutes and washed twice with PBS. Washed cells were then stained with 1 ml of freshly prepared staining solution containing propidium iodide (10 μg/ml), DNase-free RNaseA (100 μg/ml), and 0.1% (v/v) Triton X-100 before being subjected to flow cytometry measurement. To determine percentage of cell population in various cell cycle stage, ˜10,000-30,000 cells were acquired on an Attune NxT cytometer and analyzed using FCS Express software. Cell cycle analysis was performed on propidium iodide stained cells and single cell events were determined by gating on the area against the width of the propidium iodide pulse signal. DNA cell cycle modeling and fit was performed using the Multicycle AV plugin (Phoenix Flow Systems).
Cells were fixed and stained to detect BrdU incorporation by flow cytometry following the manufacturer's protocol (FITC BrdU Flow Kit, BD Biosciences, Cat #559619).

[3] = test system: THP1 cells; assay: CellTiter 96 AQueous One Solution Cell Proliferation (MTS) assay; assay type: cell-based, human
Description: Cell Viability Assay: MTS assays were performed using the CellTiter 96 AQueous One Solution Cell Proliferation Assay (Promega) according to the manufacturer's instructions. […] 48 hours the later MTS assay was performed according the to manufacturer's protocol.

[4] = test system: PARylation; assay: PolyADP-ribosylation (PARylation) immunoblot; assay type: cell-based, human
Description: Cells were collected by centrifugation, washed once with ice-cold PBS, lysed in RIPA buffer and analyzed by western blot to detect PARylation using pADPr Antibody (Santa Cruz sc-56198).

[5] = test system: THP1 cells; assay: Quantitative RT-PCR gene expression in THP1 cells; assay type: cell-based, human
Description: Quantitative RT-PCR analysis: Cells collected at indicated time points were washed with ice cold PBS and lysed in lml Trizol (Invitrogen). Total RNA extracted according to the manufacturer's recommendations was DNase treated and reverse transcribed to make cDNA with a QuantiTect Reverse Transcription kit (QIAGEN). The cDNAs synthesized were amplified by real-time quantitative PCR (Applied Biosystems 7900 HT Fast Real-Time PCR system) with Power SYBR green Master Mix. Relative gene expression was determined by the 2-ΔΔCt method, and 18S rRNA or GAPDH was used as an internal control. Primer details in Table 2.

[6] = test system: Nematostella vectensis; assay: DDR in starlet sea anemones; assay type: in vivo; conditions: whole animals; cGAMP in digitonin solution 10 minutes; doxorubicin 2 μM; 16 hours
Description: Starlet sea anemones: Wild type, laboratory maintained, Self-sustaining Nematostella vectensis culture containing of 3-6 months old male and female animals (Putnam et al., 2007) was a kind gift from Timothy J. Jegla (Penn State University Department of Biology). They were maintained in 6-well plates containing water with Instant Ocean® Aquarium Sea Salt (50 gm/l) and fed brine shrimp. […] Permeabilization solution was removed and the animals returned to maintenance sea salt water. Doxorubicin was added to the maintenance sea salt water to a final concentration of 2 μM. 16 hours post treatment. N. vectensis were collected and washed once with cold PBS before the addition of 200 μl RIPA buffer. Samples were homogenized by sonication and centrifuged at 4° C. to remove debris. Soluble lysates were quantified for protein analysis by western blot.

[7] = test system: PARP; assay: PARP activity assay; assay type: cell-based, human
Description: Post cGAMP treatment, cells were collected by centrifugation and washed with cold PBS once and resuspended in Cell Extraction Buffer. PARP activity was measured using the Chemiluminescent Assay Kit (R&D, Catalog Number: 4685-096-K) following manufacturer's protocol.

[8] = test system: one-cell fertilized C57BL/6J embryos; assay: CRISPR/Cas9 mediated gene editing in mouse embryos; assay type: cell-based; conditions: Rosa26 locus, 1 fmole/embryo cGAMP
Description: CRISPR/Cas9 mediated gene editing in mouse embryos: Target sites were selected and gRNAs for these target sites were synthesized via in vitro transcription followed by column clean up and ethanol precipitation purification. One-cell fertilized C57BL/6J embryos were microinjected with a mixture of gRNA (50 ng/μl), ssODN (50 ng/μl, IDT, Table 2), and Cas9 protein (40 ng/μl, PNA Bio). […] Injected embryos were cultured to blastocysts then lysed to isolate genomic DNA. The edited locus (Rosa26) was amplified via PCR, and samples were indexed, pooled and run on a MiSeq Nano 2×250 Reagent Kit. Demultiplexed data was analyzed with CRISPResso (Pinello et al., 2016). Reads ambiguously categorized as “HDR/NHEJ” were manually sorted using a window 30 bp wide flanking the cut site, where reads identical to the expected HDR sequence were recategorized accordingly. Samples with fewer than 100 reads were excluded from analysis.

Nc1nc2c(ncn2[C@@H]2O[C@@H]3COP(=O)(O)O[C@H]4[C@@H](O)[C@H](n5cnc6c(N)ncnc65)O[C@@H]4COP(=O)(O)O[C@@H]2[C@@H]3O)c(=O)[nH]1 [cGAMP, cyclic guanosine monophosphate-adenosine monophosphate]
EdU-positive cells [1]: diminished count of hRPE and STING-U2OS EdU-positive cells
dependence of cGAMP-induced G1 cell cycle arrest on STING, TBK1, IFNAR1, STAT2 ([2]; STING−/−, shTBK1, shIFNAR1, shSTAT2 THP1): reliant on the former two signaling proteins (i.e. STING and TBK1), but occurs independently of IFNAR and STAT2
G1 arrest in unperturbed and PARP-inhibited cells ([2]; WT THP1, 10 μM Rucaparib or vehicle, 24 hours): promotes G1 arrest in both unperturbed as well as PARP-inhibited cells
number of cells in the S-phase ([2]; WT THP1, BrdU, 24 hours): decreased the number of cells in the S-phase
proportion of cells in the G1 phase ([2]; WT THP1, BrdU, 24 hours): substantially increased the proportion of cells arrested in the G1 phase
cGAMP-induced G1 arrest after p53 knockdown ([2]; shP53 U2OS-STING cells, 24 hours): abrogated the cGAMP-induced G1 arrest
sensitization to IR in rucaparib-pretreated cells ([3]; WT THP1, 10 μM Rucaparib, 10Gy, 48 hours): unable to further sensitize cells to IR
sensitivity to ionizing radiation (cell survival) ([3]; WT THP1, 10Gy, 48 hours): more sensitive to ionizing radiation (IR)
THP1 cell proliferation ([3]; WT THP1 post cGAMP treatment): inhibited THP1 cell proliferation
cGAMP-induced suppression of protein PARylation in ATM-inhibited cells ([4]; 25 μM KU-55933): proceeded normally in ATM-inhibited cells
total cellular level of protein PARylation ([4]; WT THP1, H2O2 or doxorubicin): substantially reduced total cellular level of protein PARylation
PARP1 PARylation ([4]; WT THP1, cGAMP 6 hours, H2O2 10 minutes, anti-PARP1 IP): notably reduced
STING requirement for cGAMP-induced suppression of protein PARylation ([4]; WT and STING−/− THP1, 250 μM H2O2 10 minutes): STING was required
dependence of DDR gene induction on STING and TBK1 ([5]; STING−/− THP1, 10 μM MRT67307 2 hours then cGAMP 6 hours): dependent on STING and TBK1
induction of IFN genes (IFN-β and ISGs) ([5]; THP1, exogenous cGAMP 1 μg vs transfected HT-DNA 2 μg): comparable to that of cytosolic DNA-induced, endogenously produced cGAMP
CDKN1A/p21 transcript ([5]; WT THP1, 6 hours): strong induction of CDKN1A/p21
transcript abundance of E2F target genes ([5]; WT THP1, 6 hours): decreased transcript abundance of E2F target genes
TBK1 phosphorylation (pTBK1) [6]: TBK1 phosphorylation
γH2AX [6]: elevated levels of γH2AX
PARP enzymatic activity in cell lysates ([7]; THP1, cGAMP 6 hours, Rucaparib 10 μM, 6 hr): reduction in the PARP enzymatic activity
STING dependence of cGAMP-induced reduction in PARP enzymatic activity ([7]; WT and STING−/− THP1): dependent on STING
CRISPR/Cas9-mediated HDR editing [8]: significantly diminished
non-homologous end joining (NHEJ) [8]: unaffected
total editing frequency [8]: unaffected

Source: US20240335465A1 (University of Virginia Patent Foundation, priority 2021, published 2024)
